Experimental data reported in US20240067651A1 (Biohaven Therapeutics Ltd., priority 2019, published 2024).

Tests used:
Plasma Stability = format: in vitro ADME, human
Description: Plasma stability estimates the ability of a compound to remain intact in the blood. For prodrugs that are intended to be hydrolyzed by plasma enzymes a certain level of instability in plasma indicates the compound is probably breaking down to the parent drug. A stability range of 25-75% remaining parent compound after 1 hour in plasma indicates the compound is likely breaking down to the parent drug molecule and a patient will be exposed to this parent molecule.
Assessment of plasma stability was carried out by individual incubations of drug candidates in fresh human plasma at a concentration of 1 μM for 1 hour at 37° C. After which, the samples were de-proteinized by addition of 2 volumes of acetonitrile containing 0.1% formic acid and internal standard, vortex mixed for 2 minutes and centrifuged at 4,000 rpm for 10 minutes to pellet precipitated protein. The resulting supernatant containing the drug candidates was diluted 5-fold with water containing 0.1% formic acid and submitted to LCMS/MS analysis. All determinations were done in triplicate. Plasma stability was expressed as percent of control remaining.
See Pelletier et al. ACS Med. Chem. Lett. 2018, 9, 752-756.

[1] = Stability in Simulated Intestinal Fluid (SIF); format: in vitro ADME; set-up: key: % parent compound remaining relative to 0-minute sample
Description: (§1) Simulated gastric fluid (SGF) and Simulated intestinal fluid (SIF) stability are in vitro metrics indicating the ability of a compound to pass through the gastrointestinal tract […] or completely digested. An undigested or nearly undigested compound will usually survive gut transit long enough to be absorbed into the systemic circulation. Greater than 50% remaining intact compound at 1 hour indicates a relatively stable molecule that will likely be absorbed in the gut.
(§2) For each test compound, samples at a final concentration of 2 μg/mL are prepared in respective blank simulated gastric fluid with pepsin (pH 1.2) and simulated intestinal fluid with pancreatin (pH 6.8). All samples are incubated at 37° C. on a 150-rpm orbital shaker, and an aliquot is removed at predetermined time points (0 to 60 minutes). Samples are precipitated with three volumes of acetonitrile containing propranolol as internal standard, and centrifuged for 10 min at 2,000 g before LC-MS/MS analysis of the supernatant solutions. Percent parent compound remaining is determined relative to 0-minute incubation samples. If a sufficient number of time points are available, the degradation half-life is calculated based on the natural log of % compound remaining vs. time plot.

[2] = Caco-2 Permeability Assay; format: in vitro ADME, human; details: human
Text: The compounds of the invention may be tested for biological activity as MPO inhibitors by methods known to those skilled in the art. In addition, methods such as, for example, a Caco-2 assay, may be used to test the bioavailability of the compounds of the invention. A description of a Caco-2 permeability assay is as follows:
• The Caco-2 monolayer is widely used across the pharmaceutical industry as an in vitro model of the human small intestinal mucosa to predict the absorption of orally administered drugs.^1-4 • The Caco-2 cell model mimics processes such as transcellular transport, paracellular transport, and some aspects of efflux and active transport. • Readout: Papp (A→B), Papp (B→A), Efflux ratio, % Recovery • Controls: with and without Pgp inhibitor; Atenolol, Propanolol, Taxel-1
The Caco-2 cells are cultured to confluency, trypsinized and seeded onto a filter transwell insert at a density of ^˜32,000 cells/well in DMEM cell culture medium. Cells are grown in a humidified atmosphere of 5% CO2 at 37° C. Following an overnight attachment period (24 h after seeding), the cell medium is replaced with fresh medium in both the apical and basolateral compartments every other day. The cell monolayers are used for transport studies 21 days post seeding after measuring the TEER values ([…]). The apical sides and basolateral sides are washed consecutively with HBSS 2.5% (v/v), HEPES (pH 7.4) or HBSS 2.5% (v/v), HEPES 10% (v/v), and Fetal Bovine Serum (pH 7.4) at 37° C. in an incubator under an atmosphere of 5% CO2.
Donor working solution is prepared by dilution of DMSO stock of test article or positive control with transport media to 10 μM.
For A→B directional transport, the donor working solution (with test article or positive control, with or without Pgp inhibitor) is added to the apical (A) compartment and the transport media as receiver working solution is added to the basolateral (B) compartment. For B→A directional transport, the donor working solution (with positive control or test article, with or without Pgp inhibitor) is added to the basolateral (B) compartment and transport media as receiver working solution is added to the apical (A) compartment.
The cells are incubated in a humidified atmosphere of 5% CO2 at 37° C. for 90 minutes.
At the end of the incubation, samples are taken from both donor and receiver compartments and transferred into 96-well assay plates containing internal standard solution (IS) in each well. After centrifugation, the supernatant solutions are transferred to clean 96 well plates and analyzed by LC-MS/MS. The MS detection is performed using a Sciex API 4000 instrument. Each compound is analyzed by reversed phase HPLC.
The parameters Papp (apparent permeability) and efflux ratio are calculated as follows:
Papp=(dQ/dt)×(1/C0)×(1/A)
Efflux ratio=Papp[B→A]/Papp[A→B]
where dQ/dt is the permeability rate, C0 is the initial concentration in the donor compartment, and A is the surface area of the cell monolayer (0.33 cm^2). The Papp value is a rate measured in cm/s. Calculated Papp is ranked as low (<[…]), moderate (1-10×10^−6 cm/s), and high (>[…]).
Comparing the efflux ratios generated in the presence and absence of a Pgp inhibitor identifies whether the test article is a Pgp substrate.
Recovery is calculated as follows:
% Recovery=(Total compound mass in donor and receiver compartments at the end of the incubation/Initial compound mass in the donor compartment)×100.

[3] = Stability in Simulated Gastric Fluid (SGF); format: in vitro ADME; set-up: key: % parent compound remaining relative to 0-minute sample
Description: as §1, §2

[4] = % remaining at 1 h, human plasma, 1 μM, 37° C.
[5] = % remaining at 1 h, SIF with pancreatin pH 6.8, 2 μg/mL, 37° C.
[6] = Caco-2, pH 7.4, donor 10 μM, 90 minutes, 37° C., direction not given
[7] = % remaining at 1 h, SGF with pepsin pH 1.2, 2 μg/mL, 37° C.
[8] = % remaining at 1 h in human plasma
[9] = % remaining at 1 h in simulated intestinal fluid
[10] = Caco-2, pH 7.4, Caco-2 monolayer
[11] = % remaining at 1 h in simulated gastric fluid

Structure (SMILES)	human Plasma stability (Plasma Stability; [4])	SIF [1, 5]	Papp at 90 min, 10 µM [2, 6]	SGF [3, 7]	human Plasma stability (Plasma Stability; [8])	SIF [1, 9]	Papp at 90 min, 10 µM [2, 10]	SGF [3, 11]
CC(C)OCCn1c(=S)[nH]c(=O)c2c1ccn2COC(=O)[C@@H]1CCCN1C(=O)OC(C)(C)C [Example 1, (S)-tert-Butyl (1,2,3,4-tetrahydro-1-(2-isopropoxyethyl)-4-oxo-2-thioxopyrrolo[3,2-d]pyrimidin-5-yl)methyl pyrrolidine-1,2-dicarboxylate]	92%	94%	37.1 ×10⁻⁶ cm/s	99%				
CC(C)OCCn1c(=S)[nH]c(=O)c2c1ccn2COC(=O)[C@@H]1CCC(=O)N1C(=O)OCc1ccccc1 [Example 4, 1-benzyl 2-{4-oxo-1-[2-(propan-2-yloxy)ethyl]-2-sulfanylidene-1H,2H,3H,4H,5H-pyrrolo[3,2-d]pyrimidin-5-yl}methyl (2S)-5-oxopyrrolidine-1,2-dicarboxylate]	40%	94%	13.4 ×10⁻⁶ cm/s	97%				
CC(C)OCCn1c(=S)[nH]c(=O)c2c1ccn2COC(=O)CCNC(=O)OC(C)(C)C [Example 6, {4-Oxo-1-[2-(propan-2-yloxy)ethyl]-2-sulfanylidene-1H,2H,3H,4H,5H-pyrrolo[3,2-d]pyrimidin-5-yl}methyl 3-{[(tert-butoxy)carbonyl]amino}propanoate]	59%	67%	17.9 ×10⁻⁶ cm/s	82%				
CC(C)OCCn1c(=S)[nH]c(=O)c2c1ccn2COC(=O)CCCCNC(=O)OC(C)(C)C [Example 7, {4-oxo-1-[2-(propan-2-yloxy)ethyl]-2-sulfanylidene-1H,2H,3H,4H,5H-pyrrolo[3,2-d]pyrimidin-5-yl}methyl 5-{[(tert-butoxy)carbonyl]amino}pentanoate]	4%	40%	14.7 ×10⁻⁶ cm/s	66%				
CC(C)OCCn1c(=S)[nH]c(=O)c2c1ccn2COC(=O)CCN [Example 8, Trifluoroacetic acid {4-oxo-1-[2-(propan-2-yloxy)ethyl]-2-sulfanylidene-1H,2H,3H,4H,5H-pyrrolo[3,2-d]pyrimidin-5-yl}methyl 3-aminopropanoate]	45%	68%	0.46 ×10⁻⁶ cm/s	97%				
CC(C)OCCn1c(=S)[nH]c(=O)c2c1ccn2COC(=O)CCNC(=O)CNC(=O)OC(C)(C)C [Example 9, {4-Oxo-1-[2-(propan-2-yloxy)ethyl]-2-sulfanylidene-1H,2H,3H,4H,5H-pyrrolo[3,2-d]pyrimidin-5-yl}methyl 3-(2-{[(tert-butoxy)carbonyl]amino}acetamido)propanoate]	52%	61%	1.53 ×10⁻⁶ cm/s	100%				
CC(C)OCCn1c(=S)[nH]c(=O)c2c1ccn2COC(=O)CCCCNC(=O)[C@@H](NC(=O)OC(C)(C)C)C(C)C [Example 10, {4-oxo-1-[2-(propan-2-yloxy)-ethyl]-2-sulfanylidene-1H,2H,3H,4H,5H-pyrrolo[3,2-d]pyrimidin-5-yl}methyl5-[(2S)-2-{[(tert-butoxy)carbonyl]amino}-3-methylbutanamido]pentanoate]	72%	76%	4.87 ×10⁻⁶ cm/s	81%				
CC(C)OCCn1c(=S)[nH]c(=O)c2c1ccn2COC(=O)CCNC(=O)[C@@H](NC(=O)OC(C)(C)C)C(C)C [Example 11, {4-oxo-1-[2-(propan-2-yloxy)-ethyl]-2-sulfanylidene-1H,2H,3H,4H,5H-pyrrolo[3,2-d]pyrimidin-5-yl}methyl3-[(2S)-2-{[(tert-butoxy)carbonyl]amino}-3-methylbutanamido]propanoate]	99%	69%	1.44 ×10⁻⁶ cm/s	74%				
CC(C)OCCn1c(=S)[nH]c(=O)c2c1ccn2COC(=O)CCCCNC(=O)[C@@H](N)C(C)C [Example 12, Trifluoroacetic acid {4-oxo-1-[2-(propan-2-yloxy)ethyl]-2-sulfanylidene-1H,2H,3H,4H,5H-pyrrolo[3,2-d]pyrimidin-5-yl}methyl 5-[(2S)-2-amino-3-methylbutanamido]pentanoate]	76%	94%	0.4 ×10⁻⁶ cm/s	100%				
CC(C)OCCn1c(=S)[nH]c(=O)c2c1ccn2COC(=O)CCCCNC(=O)CNC(=O)OC(C)(C)C [Example 13]					1% remaining	94% remaining	1.88 ×10⁻⁶ cm/s	96% remaining
CC(C)OCCn1c(=S)[nH]c(=O)c2c1ccn2COC(=O)CCNC(=O)[C@@H](N)C(C)C.O=C(O)C(F)(F)F [Example 14]					55% remaining	84% remaining	< 0.203 ×10⁻⁶ cm/s	95% remaining
CC(C)OCCn1c(=S)[nH]c(=O)c2c1ccn2COC(=O)CCCCNC(=O)[C@H](CCc1ccccc1)NC(=O)OC(C)(C)C.O=C(O)C(F)(F)F [Example 18]					66% remaining	65% remaining	7.59 ×10⁻⁶ cm/s	100%
CC(C)OCCn1c(=S)[nH]c(=O)c2c1ccn2COC(=O)CCNC(=O)[C@H](CCc1ccccc1)NC(=O)OC(C)(C)C.O=C(O)C(F)(F)F [Example 19]					42% remaining	57% remaining	11.7 ×10⁻⁶ cm/s	82% remaining
CSCC[C@H](NC(=O)OCC1c2ccccc2-c2ccccc21)C(=O)NCCCCC(=O)OCn1ccc2c1c(=O)[nH]c(=S)n2CCOC(C)C.O=C(O)C(F)(F)F [Example 20]					64% remaining	76% remaining	0.985 ×10⁻⁶ cm/s	80% remaining
CC(C)OCCn1c(SCOC(=O)C(C)(C)C)nc(=O)c2c1ccn2COC(=O)C(C)(C)C [Example 144]							5.11 ×10⁻⁶ cm/s	
CC(C)OCCn1c(SCOC(=O)c2ccccc2)nc(=O)c2c1ccn2COC(=O)c1ccccc1.O=C(O)C(F)(F)F [Example 158]							5.37 ×10⁻⁶ cm/s	
